Assay results taken from US20240407993A1, “PEPTIDE HAVING ANTI-AGING ACTIVITY, AND USE THEREOF” (CAREGEN CO., LTD., priority 2021, published 2024).

Key:
MMP-1 = MMP-1 protein expression increased by UV irradiation, western blot in fibroblasts; type: cell-based, mouse; settings: NIH3T3 cells, 6 J/cm^2 UVA, peptide 1, 10, 50 μM, 24 hours after irradiation; FIG. 6A
Protocol: The expression of MMP-1 encoding proteins related to collagen degradation increases by ultraviolet irradiation. Therefore, it was confirmed whether the expression of the MMP-1 protein was inhibited again and the cell aging phenomenon was inhibited when treated with the peptide of the present invention.
(§1) First, NIH3T3 cells and HaCaT cells were seeded in a 6-well plate at a cell density of 5×10^5 cell/well, respectively, and then the cells were cultured in DMEM medium containing 10% fetal bovine serum (FBS) for 24 hours. The cultured cells were washed once with serum free DMEM medium, and the peptide of the present invention was mixed in 1 mL of the serum free DMEM medium at each of concentrations of 1, 10, and 50 μM, and dispensed into the cells. A positive control (PC) was treated with 2.5 mM of N-Acetylcysteine (NaC) instead of the above peptide.
The cells were cultured in a CO2 incubator at 37° C. for 1 hour. The medium of the cultured cells was transferred to a tube (e-tube), 1 ml of PBS was added, and then the NIH3T3 cells were irradiated with 6 J/cm^2 of UVA and the HaCaT cells were irradiated with 15 mJ/cm^2 of UVB using a UV irradiator (VILBER LOURMAT, Cat No.: 3102-BSU, France). After removing PBS, 900 μL of the medium transferred to the tube was added, and culture was performed in a CO2 incubator at 37° C. for 24 hours. […]

Fibronectin = Fibronectin gene expression by RT-PCR in fibroblasts; type: cell-based, mouse; settings: NIH3T3 cells, peptide 1, 10, 50 μM, 24 hours; FIGS. 1A, 1C
Protocol: as §1, with “(mouse fibroblast cell line)” for “and HaCaT cells”, “3×10^5” for “5×10^5”, “cell/well,” for “cell/well, respectively,”, “5 ng/ml” for “2.5 mM”, “TGF-β1” for “N-Acetylcysteine (NaC)”, “peptide. The cells were cultured in a CO2 incubator at 37° C. for 24 hours.” for “peptide.”
The cultured cells were washed twice with PBS, and RNA was extracted from the cells using easy blue (iNtRON, Cat. No.: 17061, Korea). The amount of RNA extracted was quantified, 1,000 ng of RNA was added per tube, and RT reaction was performed using a kit (enzynomics, Cat. No.: PT200, Korea). RT-PCR was performed using a PCR kit (enzynomics, Cat. No.: […], Korea). The sequences of the primers of collagen, fibronectin, and elastin used in RT-PCR and the sequence of the primer of GAPDH used to compare the total RNA amount of each treatment group are shown in [Table 2].

## LCACCLHNCNECQ
MMP-1
  expression of MMP-1 increased by UV irradiation: inhibited
Fibronectin
  expression of the fibronectin gene: gradually increased as a concentration of the peptide increased
